Target: CDK2 (human) (UniProt P24941)
Assay: Enzyme Assay

IC50, < 1000 nM:
C[C@@H]1CN(Cc2ccc3cc(-c4csc(CS(=O)(=O)c5ccccc5)n4)c(=O)[nH]c3c2)C[C@H](C)N1
O=c1[nH]c2cc(CN3CCCCC3)ccc2cc1-c1csc(CS(=O)(=O)c2ccccc2)n1
CC(C)[C@H]1CN(Cc2ccc3cc(-c4csc(CS(=O)(=O)c5ccccc5)n4)c(=O)[nH]c3c2)CCN1
CN(c1nc(-c2cc3ccc(C(=O)O)cc3[nH]c2=O)cs1)S(=O)(=O)c1ccccc1
CCN(CC)CCN(C)c1ncc2cc(-c3csc(-c4ccncc4)n3)c(=O)[nH]c2n1
CCc1cc(-c2nc(-c3cc4cc(Cl)ccc4[nH]c3=O)cs2)ccn1
O=c1[nH]c2ccccc2cc1-c1csc(C[S+]([O-])c2ccccc2)n1 (configuration not stated)

— the Kinase Knowledgebase extract (Sharma et al. 2016)
